Laboratory results published in ChEMBL document CHEMBL1126226, “The discovery of a new structural class of potent orally active leukotriene D4 antagonists” (Bioorg Med Chem Lett, 1992).
pIC50: −log10 of the molar value.

Assays:
[1] = Plasma clearance was estimated from the AUC after 5 mg/kg intravenous dosing in rats; type: ADME, organism-based; design: dose 5 mg/kg, route intravenous; conditions: rat
[2] = biological target: T1, Cysteinyl leukotriene receptor 1 (Cavia porcellus, UniProt Q2NNR5); assay: Inhibitory concentration against [3H]Leukotriene D4 binding to guinea-pig lung membranes was determined; type: tissue-based, Membrane
T1 sequence (Q2NNR5 whole entry): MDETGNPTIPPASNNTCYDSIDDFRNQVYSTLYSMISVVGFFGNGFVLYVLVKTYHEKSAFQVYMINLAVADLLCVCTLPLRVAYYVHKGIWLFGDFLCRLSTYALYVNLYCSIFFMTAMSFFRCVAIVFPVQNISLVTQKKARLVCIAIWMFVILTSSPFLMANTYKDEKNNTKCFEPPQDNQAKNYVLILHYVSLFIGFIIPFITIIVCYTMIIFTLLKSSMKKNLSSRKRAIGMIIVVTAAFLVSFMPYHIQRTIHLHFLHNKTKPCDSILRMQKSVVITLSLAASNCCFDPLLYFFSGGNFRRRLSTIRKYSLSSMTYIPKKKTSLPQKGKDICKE

[3] = biological target: T1, Cysteinyl leukotriene receptor 1; assay: Inhibitory concentration against [3H]Leukotriene D4 binding to guinea-pig lung membranes was determined; experiment 1; type: tissue-based, Membrane
[4] = biological target: T1, Cysteinyl leukotriene receptor 1; assay: Inhibitory concentration against [3H]Leukotriene D4 binding to guinea-pig lung membranes was determined; experiment 2; type: tissue-based, Membrane
[5] = biological target: T1, Cysteinyl leukotriene receptor 1; assay: Inhibition of Leukotriene D4 induced contraction of guinea-pig trachea was determined; type: functional, tissue-based; conditions: read-out: pA2 (converted)
Mus musculus [6] = assay: The compound was tested for average percentage increase of fatty acyl Co-A oxidase activity after 4 days of dosing in mice at 400 mg/kg peroral administration; type: functional; conditions: route oral
Rattus norvegicus [7] = assay: Percent inhibition of Antigen induced dyspnea in hyperactive rats by the compound at 0.5 mg/kg concentration was determined; type: functional
[8] = biological target: T1, Cysteinyl leukotriene receptor 1; assay: Inhibitory concentration against [3H]Leukotriene D4 binding to guinea-pig lung membranes was determined (Experiment 2); type: tissue-based, Membrane
[9] = biological target: T1, Cysteinyl leukotriene receptor 1; assay: Inhibitory concentration against [3H]Leukotriene D4 binding to guinea-pig lung membranes was determined (Experiment 1); type: tissue-based, Membrane
Mus musculus [10] = assay: The compound was tested for average percentage increase of fatty acyl Co-A oxidase activity after 4 days of dosing mice at 400 mg/kg peroral administration; type: functional; conditions: route oral
[11] = The apparent total plasma clearance in monkey; type: ADME, organism-based; conditions: cercopithecidae
Rattus norvegicus [12] = assay: Percent inhibition of Antigen induced dyspnea in hyperractive rats by the compound at 0.5 mg/kg concentration was determined after peroral administration, 2 hr pretreatment; type: functional; conditions: route oral
Cavia porcellus = assay: Effective dose in guinea pig on intravenous administration; type: functional
Monkey [13] = assay: Inhibition of Leukotriene D4 induced bronchoconstriction in squirrel monkey, 4 hr pretreatment at 0.1 mg/kg peroral administration; type: functional; conditions: in Primates, route oral
Mus musculus [14] = assay: The compound was tested for average percentage increase of fatty acyl Co-A oxidase activity after 4 days of dosing in mice at 100 mg/kg peroral administration; type: functional; conditions: route oral
Monkey [15] = assay: Inhibition of Leukotriene D4 induced bronchoconstriction in squirrel monkey, 4 hr pretreatment, 0.1 mg/kg peroral administration; type: functional; conditions: in Primates, route oral

| Structure (SMILES) | clearance [1] [mL/min/kg] | pIC50 [2] | pIC50 [3] | pIC50 [4] | further results |
| --- | --- | --- | --- | --- | --- |
| O=C([O-])CCSC(CCc1ccccc1-c1nc[nH]n1)c1cccc(OCc2ccc3ccc(Cl)cc3n2)c1.[Na+] (stereo not drawn) | 64 | 9.44 |  |  |  |
| CC(CSC(CCc1ccccc1C(C)(C)O)c1cccc(OCc2ccc3ccc(Cl)cc3n2)c1)C(=O)[O-].[Na+] (stereo not drawn) | 12 |  | 9.30 | 9.07 |  |
| CCC(CSC(CCc1ccccc1C(N)=O)c1cccc(OCc2ccc3ccc(Cl)cc3n2)c1)C(=O)[O-].[Na+] (stereo not drawn) | 58 | 9.33 |  |  |  |
| CC(CSC(CCc1ccccc1C(=O)N(C)C)c1cccc(OCc2ccc3ccc(Cl)cc3n2)c1)C(=O)O (stereo not drawn) |  | 9.28 |  |  |  |
| CCC(CSC(CCc1ccccc1-c1nnnn1C)c1cccc(OCc2ccc3ccc(Cl)cc3n2)c1)C(=O)[O-].[Na+] (stereo not drawn) | 18 | 9.40 |  |  |  |
| NS(=O)(=O)c1ccccc1CCC(SCCC(=O)[O-])c1cccc(OCc2ccc3ccc(Cl)cc3n2)c1.[Na+] (stereo not drawn) | 106 |  | 9.40 | 9.22 |  |
| C[C@H](CS[C@H](CCc1ccccc1C(C)(C)O)c1cccc(OCc2ccc3ccc(Cl)cc3n2)c1)C(=O)[O-].[Na+] |  |  | 8.70 | 8.40 | Kb [5]: 0.794 nM; FACO Activity (Mus musculus [6]): 128%; inhibition in vivo at 0.5 mg/kg (Rattus norvegicus [7]): 62% |
| CCC(CSC(CCc1ccccc1S(C)(=O)=O)c1cccc(OCc2ccc3ccc(Cl)cc3n2)c1)C(=O)[O-].[Na+] (stereo not drawn) | 35 |  | 9.22 | 9.00 |  |
| CC(CSC(CCc1ccccc1[N+](=O)[O-])c1cccc(OCc2ccc3ccc(Cl)cc3n2)c1)C(=O)[O-].[Na+] (stereo not drawn) | 12 |  | 9.40 | 9.31 |  |
| CN(C)C(=O)CCSC(SCCC(=O)O)c1cccc(CCc2ccc3ccc(Cl)cc3n2)c1 (stereo not drawn) |  |  |  |  | pIC50 [8]: 7.44; pIC50 [9]: 7.59 |
| CC(CSC(CCc1ccccc1C(C)C)c1cccc(OCc2ccc3ccc(Cl)cc3n2)c1)C(=O)[O-].[Na+] (stereo not drawn) | 2.2 | 8.20 |  |  |  |
| O=C([O-])CCSC(CCc1ccccc1)c1cccc(OCc2ccc3ccc(Cl)cc3n2)c1.[Na+] (stereo not drawn) | 2.9 | 8.19 |  |  |  |
| CC(CCC(SCCC(=O)O)c1cccc(OCc2ccc3ccc(Cl)cc3n2)c1)CC(=O)N(C)C (stereo not drawn) |  | 8.07 |  |  |  |
| CN(C)C(=O)CCSC(SCCC(=O)O)c1cccc(SCc2ccc3ccc(Cl)cc3n2)c1 (stereo not drawn) |  | 7.12 |  |  |  |
| CC(CCC(SCCC(=O)O)c1cccc(/C=C/c2ccc3ccc(Cl)cc3n2)c1)CC(=O)N(C)C (stereo not drawn) |  | 8.89 |  |  |  |
| CN(C)C(=O)c1ccccc1CCC(SCCC(=O)[O-])c1cccc(OCc2ccc3ccc(Cl)cc3n2)c1.[Na+] (stereo not drawn) | 64 | 9.02 |  |  |  |
| CS(=O)(=O)Nc1ccccc1CCC(SCCC(=O)[O-])c1cccc(OCc2ccc3ccc(Cl)cc3n2)c1.[Na+] (stereo not drawn) | 131 |  | 9.25 | 9.22 |  |

| Structure (SMILES) | clearance [1] [mL/min/kg] | pIC50 [2] | pIC50 [3] | pIC50 [4] | further results |
| --- | --- | --- | --- | --- | --- |
| C[C@H](CS[C@@H](CCc1ccccc1C(C)(C)O)c1cccc(OCc2ccc3ccc(Cl)cc3n2)c1)C(=O)[O-].[Na+] |  |  | 7.77 | 7.70 | Kb [5]: 5.01 nM; FACO Activity (Mus musculus [10]): 10%; inhibition in vivo at 0.5 mg/kg (Rattus norvegicus [7]): 47% |
| C[C@@H](CS[C@H](CCc1ccccc1C(C)(C)O)c1cccc(OCc2ccc3ccc(Cl)cc3n2)c1)C(=O)[O-].[Na+] |  |  | 9.70 | 9.52 | Kb [5]: 0.398 nM; FACO Activity (Mus musculus [6]): 155%; inhibition in vivo at 0.5 mg/kg (Rattus norvegicus [7]): 63% |
| CC(CSC(CCc1ccccc1C(=O)N(C)CO)c1cccc(OCc2ccc3ccc(Cl)cc3n2)c1)C(=O)O (stereo not drawn) |  | 8.44 |  |  |  |
| CN(C)C(=O)CCSC(SCCC(=O)O)c1cccc(OCc2ccc3ccc(Cl)cc3n2)c1 (stereo not drawn) |  | 7.85 |  |  |  |
| C[C@@H](CS[C@@H](CCc1ccccc1C(C)(C)O)c1cccc(OCc2ccc3ccc(Cl)cc3n2)c1)C(=O)[O-].[Na+] |  |  | 8.30 | 8.15 | Kb [5]: 1.58 nM; FACO Activity (Mus musculus [10]): -7%; inhibition in vivo at 0.5 mg/kg (Rattus norvegicus [7]): 46% |
| CCC(CSC(CCc1ccccc1-c1nn[nH]n1)c1cccc(OCc2ccc3ccc(Cl)cc3n2)c1)C(=O)[O-].[Na+] (stereo not drawn) | 61 |  | 9.10 | 9.30 |  |
| O=C([O-])CCSC(CCc1ccccc1C(=O)N1CCCCC1)c1cccc(OCc2ccc3ccc(Cl)cc3n2)c1.[Na+] (stereo not drawn) | 55 | 9.22 |  |  |  |
| CCOC(=O)Nc1ccccc1CCC(SCC(CC)C(=O)[O-])c1cccc(CCc2ccc3ccc(Cl)cc3n2)c1.[Na+] (stereo not drawn) | 8.8 |  | 9.30 | 9.22 |  |
| CN(C)C(=O)c1ccccc1CCC(SCCC(=O)O)c1cccc(OCc2ccc3ccc(Cl)cc3n2)c1 (stereo not drawn) |  | 9.02 |  |  |  |
| CCC(CSC(CCc1ccccc1C(=O)O)c1cccc(OCc2ccc3ccc(Cl)cc3n2)c1)C(=O)[O-].[Na+] (stereo not drawn) | 8.8 |  | 8.70 | 9.00 |  |
| CCNC(=O)c1ccccc1CCC(SCC(CC)C(=O)[O-])c1cccc(OCc2ccc3ccc(Cl)cc3n2)c1.[Na+] (stereo not drawn) | 106 | 9.35 |  |  |  |
| CCC(CSC(CCc1ccccc1C#N)c1cccc(CCc2ccc3ccc(Cl)cc3n2)c1)C(=O)[O-].[Na+] (stereo not drawn) | 13 | 9.00 |  |  |  |
| CCC(CSC(CCc1ccccc1C(=O)NS(=O)(=O)c1ccccc1C)c1cccc(OCc2ccc3ccc(Cl)cc3n2)c1)C(=O)[O-].[Na+] (stereo not drawn) | 15 |  | 8.85 | 8.19 |  |
| CN(C)C(=O)CCSC(CCc1ccccc1C(=O)O)c1cccc(OCc2ccc3ccc(Cl)cc3n2)c1 (stereo not drawn) |  | 8.72 |  |  | clearance [11]: 15 mL/min/kg; inhibition in vivo at 0.5 mg/kg (Rattus norvegicus [12]): 54% |
| CCC[C@H](CS[C@@H](CCc1ccccc1C(C)(C)O)c1cccc(/C=C/c2ccc3ccc(Cl)cc3n2)c1)C(=O)O [L-695499] |  | 9.05 |  |  | Kb [5]: 1.58 nM; ED50 (Cavia porcellus): 2 µg/kg; inhibition in vivo at 0.1 mg/kg (Monkey [13]): 72%; FACO Activity (Mus musculus [14]): 38% |
| CN(C)C(=O)CCS[C@H](SCCC(=O)O)c1cccc(/C=C/c2ccc3ccc(Cl)cc3n2)c1 [MK-571] |  | 8.41 |  |  | clearance [11]: 1.2 mL/min/kg; Kb [5]: 1.58 nM; ED50 (Cavia porcellus): 2.8 µg/kg; inhibition in vivo at 0.1 mg/kg (Monkey [15]): 60%; FACO Activity (Mus musculus [6]): 62% |
